Laboratory results from PubChem BioAssay (NCI).
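Protocol summary: plate cells (96-well), add compound at 5 concentrations, incubate 48 h, interpolate endpoints linearly. The concentration for 50% growth inhibition is given as GI50. Definition used: TGI = concentration required for complete inhibition of growth.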

Legend:
Test in all cases: NCI anticancer screen, dose series, 48 h; in the data active = GI50 below about 0.43 µM; inactive = the rest
[1] = test system: 786-0 renal
[2] = test system: A498 renal
[3] = test system: A549 NSCLC
[4] = test system: ACHN renal
[5] = test system: BT-549 breast
[6] = test system: CAKI-1 renal
[7] = test system: CCRF-CEM leukemia
[8] = test system: COLO 205 colon
[9] = test system: DU-145 prostate
[10] = test system: EKVX NSCLC
[11] = test system: HCC-2998 colon
[12] = test system: HCT-116 colon
[13] = test system: HCT-15 colon
[14] = test system: HL-60(TB) leukemia
[15] = test system: HOP-62 NSCLC
[16] = test system: HOP-92 NSCLC
[17] = test system: HS 578T breast
[18] = test system: HT29 colon
[19] = test system: IGROV1 ovarian
[20] = test system: K-562 leukemia
[21] = test system: KM12 colon
[22] = test system: LOX IMVI melanoma
[23] = test system: M14 melanoma
[24] = test system: MALME-3M melanoma
[25] = test system: MCF7 breast
[26] = test system: MDA-MB-231 breast
[27] = test system: MDA-MB-435
[28] = test system: MOLT-4 leukemia
[29] = test system: NCI-H226 lung
[30] = test system: NCI-H23 lung
[31] = test system: NCI-H460 lung
[32] = test system: NCI-H522 lung
[33] = test system: NCI/ADR-RES ovarian
[34] = test system: OVCAR-3 ovarian
[35] = test system: OVCAR-4 ovarian
[36] = test system: OVCAR-5 ovarian
[37] = test system: OVCAR-8 ovarian
[38] = test system: PC-3 prostate
[39] = test system: RPMI-8226 leukemia
[40] = test system: RXF 393 renal
[41] = test system: SF-268 CNS
[42] = test system: SF-295 CNS
[43] = test system: SF-539 CNS
[44] = test system: SK-MEL-2 melanoma
[45] = test system: SK-MEL-28 melanoma
[46] = test system: SK-MEL-5 melanoma
[47] = test system: SK-OV-3 ovarian
[48] = test system: SN12C renal
[49] = test system: SNB-19 CNS
[50] = test system: SNB-75 CNS
[51] = test system: SR leukemia
[52] = test system: SW-620 colon
[53] = test system: T-47D breast
[54] = test system: TK-10 renal
[55] = test system: U251 CNS
[56] = test system: UACC-257 melanoma
[57] = test system: UACC-62 melanoma
[58] = test system: UO-31 renal
[59] = test system: MDA-N

COC(=O)c1c2c(c(C)[n+]([O-])c1C)C(=O)C(NCc1cccc(OC)c1)=CC2=O
active: GI50 [24] 0.318 µM
5.44 µM: TGI [10]
inactive: GI50 [1] 3.6 µM | GI50 [2] 1.79 µM | GI50 [3] 2.35 µM | GI50 [4] 2.84 µM | GI50 [5] 3.49 µM | GI50 [6] 2.79 µM | GI50 [7] 3.09 µM | GI50 [8] 1.1 µM | GI50 [9] 3.43 µM | GI50 [10] 2.11 µM | GI50 [11] 3.12 µM | GI50 [12] 2.53 µM | GI50 [13] 1.89 µM | GI50 [14] 1.78 µM | GI50 [15] 3.07 µM | GI50 [16] 2.75 µM | GI50 [17] 4.1 µM | GI50 [18] 2.51 µM | GI50 [19] 1.69 µM | GI50 [20] 2.98 µM | GI50 [21] 2.48 µM | GI50 [22] 2.36 µM | GI50 [23] 1.79 µM | GI50 [25] 1.65 µM | GI50 [26] 2.21 µM | GI50 [27] 1.67 µM | GI50 [28] 2.39 µM | GI50 [29] 3.32 µM | GI50 [30] 1.84 µM | GI50 [31] 1.71 µM | GI50 [32] 1.92 µM | GI50 [33] 2.36 µM | GI50 [34] 0.512 µM | GI50 [35] 1.27 µM | GI50 [36] 2.05 µM | GI50 [37] 2.52 µM | GI50 [38] 2.63 µM | GI50 [39] 2.93 µM | GI50 [40] 2.58 µM | GI50 [41] 2.86 µM | GI50 [42] 2.05 µM | GI50 [43] 2.02 µM | GI50 [44] 2.55 µM | GI50 [45] 4.6 µM | GI50 [46] 1.2 µM | GI50 [47] 3.53 µM | GI50 [48] 1.97 µM | GI50 [49] 2.42 µM | GI50 [50] 3.03 µM | GI50 [51] 2.36 µM | GI50 [52] 2.65 µM | GI50 [53] 2.23 µM | GI50 [54] 4.55 µM | GI50 [55] 2.65 µM | GI50 [56] 1.55 µM | GI50 [57] 1.7 µM | GI50 [58] 2.27 µM
34.7 µM: TGI [17]
13 µM: TGI [29]
4.94 µM: TGI [48]
6.86 µM: TGI [22]
5.3 µM: TGI [2]
9.25 µM: TGI [58]
10.6 µM: TGI [55]
4.15 µM: TGI [43]
> 100 µM: TGI [18] | TGI [20] | TGI [51]
3.72 µM: TGI [23]
12 µM: TGI [9]
11.7 µM: TGI [41]
11.6 µM: TGI [21]
5.02 µM: TGI [32]
8 µM: TGI [31]
15.9 µM: TGI [39]
7 µM: TGI [49]
10.3 µM: TGI [6] | TGI [37]
13.6 µM: TGI [47]
6.24 µM: TGI [26]
6.57 µM: TGI [16]
3.48 µM: TGI [57]
4.76 µM: TGI [36]
10 µM: TGI [12]
22.7 µM: TGI [54]
13.4 µM: TGI [5]
5.47 µM: TGI [53]
9.64 µM: TGI [11]
5.2 µM: TGI [40]
4.73 µM: TGI [13]
17.1 µM: TGI [7]
2.86 µM: TGI [8]
25.3 µM: TGI [15]
14.8 µM: TGI [38]
3.05 µM: TGI [27]
12.9 µM: TGI [50]
3.27 µM: TGI [56]
6.13 µM: TGI [42]
2.55 µM: TGI [35]
27.1 µM: TGI [1]
10.2 µM: TGI [4]
3.21 µM: TGI [34]
6.67 µM: TGI [28]
4.41 µM: TGI [30]
18.2 µM: TGI [45]
3.63 µM: TGI [25]
2.47 µM: TGI [46]
7.49 µM: TGI [44]
9.36 µM: TGI [3]
4.11 µM: TGI [19]
6.74 µM: TGI [33]
5.39 µM: TGI [14]
8.96 µM: TGI [52]
1.3 µM: TGI [24]

O=C1Nc2ccccc2[C@]12C[C@H]2c1ccccn1
> 100 µM: TGI [1] | TGI [2] | TGI [3] | TGI [4] | TGI [5] | TGI [6] | TGI [7] | TGI [8] | TGI [9] | TGI [10] | TGI [11] | TGI [12] | TGI [13] | TGI [15] | TGI [16] | TGI [19] | TGI [20] | TGI [21] | TGI [22] | TGI [23] | TGI [24] | TGI [25] | TGI [26] | TGI [27] | TGI [59] | TGI [28] | TGI [29] | TGI [30] | TGI [31] | TGI [32] | TGI [33] | TGI [34] | TGI [35] | TGI [36] | TGI [38] | TGI [39] | TGI [40] | TGI [41] | TGI [42] | TGI [43] | TGI [44] | TGI [45] | TGI [46] | TGI [47] | TGI [48] | TGI [49] | TGI [52] | TGI [53] | TGI [54] | TGI [55] | TGI [56] | TGI [57] | TGI [58]

C[C@@H]1C[C@@H](O)[C@@]2(O)C13CC(=O)OC(C3)[C@@H](C)[C@@]2(C)CO (some centres undefined)
> 100 µM: TGI [1] | TGI [2] | TGI [3] | TGI [4] | TGI [8] | TGI [9] | TGI [10] | TGI [11] | TGI [12] | TGI [13] | TGI [14] | TGI [15] | TGI [16] | TGI [17] | TGI [18] | TGI [19] | TGI [20] | TGI [21] | TGI [22] | TGI [23] | TGI [24] | TGI [25] | TGI [26] | TGI [27] | TGI [59] | TGI [28] | TGI [29] | TGI [30] | TGI [31] | TGI [32] | TGI [33] | TGI [34] | TGI [35] | TGI [36] | TGI [37] | TGI [38] | TGI [39] | TGI [40] | TGI [41] | TGI [42] | TGI [43] | TGI [44] | TGI [45] | TGI [46] | TGI [47] | TGI [48] | TGI [49] | TGI [51] | TGI [52] | TGI [53] | TGI [54] | TGI [55] | TGI [56] | TGI [57] | TGI [58]
